Experimental data from patent US12065468B2, “Heme-binding small peptide” (priority 2021, dated 2024).
Entries after “also recorded” stand apart in the source; their conditions may differ.

Tests used:
[1] = Biolayer interferometry of heme binding
From the text: Biotinylation of heme: Hemin was biotinylated using the method exactly as described previouslyl^16. Biotin hydrazide, DCC was purchased from Sigma. COSMOSIL™ 5C18-AR-II Packed Column, 4.6 mm I.D.×150 mm from Nacalai USA (San Diego, CA) was used to separate the products. LC-MS was used to verify the correct molecular weight (969.4 Da) of biotinylated heme (in which only one of the two propionate groups of protoheme was conjugated with biotin hydrazide) as described above.
Biolayer interferometry: Biolayer interferometry was carried out using a ForteBio Octet RED96™ biolayer interferometer, following the manufacturer's instructions for a standard kinetic assay. Streptavidin-coated biosensor tips were incubated in 200 μl assay buffer (Water [pH 7.4]), each for 60s. Then biotinylated heme (or NCR247 in the case of Fe(III) PPIX dimethyl ester chloride) was loaded onto each biosensor tip at the defined concentration until the binding signal reached a value of >1.4. Biosensor tip loading was followed by incubation in assay buffer for 60s. Association between the ligand-heme and the analyte-various variants of NCR247 (Increasing concentrations in assay buffer) was observed over a time frame of ˜116 s, in assay buffer. To stop binding kinetics for dissociation, the biosensor tips were placed back into assay buffer not containing any analyte, for 120 s. Curves were fit with Global fit analysis and Data analysis and KD calculation was performed using Fortebio™ data analyses 8.2 software as described previously^89.

[2] = test system: Cytochrome c; assay: UV-Vis test of heme sequestration from Cytochrome c; format: binding; conditions: excess NCR247
Protocol: FIG. 13. […] The absorption spectrum of Cytochrome c remains unaltered even after addition of excess NCR247.
(§1) UV-VIS spectroscopy: All absorption spectra were collected in a Tecan Spark™ 10 M microplate reader using black polystyrene 96-well plates. Absorbance from 300 nm to 700 nm was recorded with a 5 nm interval after an initial shaking at 100 rpm for 15 secs. Heme binding to synthesized peptide: Water (pH 7.4) was used in all reactions and was first added to the wells. Peptides solubilized in water were added and then heme solubilized in 0.1 M NaOH was added, mixed thoroughly and measurements were taken immediately. Peptide and heme volume were kept to a maximum of 5 ul in volume. For all the absorption curves (except Extended FIG. 3a) […] was used. The same was also repeated with 0.1 M Tris buffer (pH 7.4) as a base buffer instead of water.

[3] = test system: iron uptake genes (hmuP, foxA, fhuP, rhrA, fbpA), rirA; assay: qRT-PCR of iron-related genes in S. meliloti; format: cell-based, Sinorhizobium meliloti; conditions: 30 mins; for expression of iron uptake genes: 2 μM (NSR247 up to 15 uM)
Protocol: (§2) RNA isolation and qRT-PCR analysis: Cells were grown in LB until they reached an O.D.600 nm of 0.2. Then cells were spun down and suspended in minimal media with or without appropriate FeSO4 concentrations for 1 hour. NCR247 was then added and 5 ml of appropriate cultures were spun down at given time intervals. Total RNA was extracted using Trizol™ (Thermo Fisher Scientific) method. Qiagen RNeasy™ kit was used to purify the RNA. On-column DNA removal was carried out using DNase I from NEB. 500 ng of each RNA sample was used to make cDNA using the iScript™ cDNA synthesis kit (Biorad). qRT-PCRs were performed as described previously^86. The standard curve method was used for relative quantification. In short, a standard curve was generated for each gene of interest (including SMc00128) by setting up qpCR reactions to amplify increasing amounts of S. meliloti Rm 1021 genomic DNA. […] This curve was then used for extrapolating relative expression level of each gene of interest in a particular sample to obtain the starting quantities (SQ). This value is then normalized to the SQ values of SMc00128 obtained for respective sample. […] These normalized values are then expressed as an average of triplicates, with standard deviation (s.d.) represented by the error bars.

[4] = Water solubility
[5] = test system: ctrA; assay: qRT-PCR of ctrA; format: cell-based, Sinorhizobium meliloti; conditions: 2 μM, 30 mins; listed as L-NCR247
Protocol: FIG. 16. […] The data are expressed as starting quantities (SQ) of respective mRNAs normalized to the control gene SMc00128 and are presented as average of three technical replicates
as §2, with “(SQ).” for “(SQ). This value is then normalized to the SQ values of SMc00128 obtained for respective sample.”, “bars. […]” for “bars.”

[6] = target: T1, Aβ-heme complex (Homo sapiens, UniProt P05067); assay: UV-Vis spectrum of Aβ-heme complex with NCR247; format: binding
T1 construct: equimolar addition of NCR247 to the Aβ (1-42) amyloid peptide-heme complex; purchased Genscript
T1 sequence (P05067 672-713, one chain of several): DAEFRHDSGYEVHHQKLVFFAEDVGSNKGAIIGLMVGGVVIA
Protocol: FIG. 4. […] In a, b and e, data are presented as mean of three independent replicates ±s.d. In a and b ****P<0.0001 vs untreated sample; two-way analysis of variance (ANOVA) with multiple comparisons.
as §1

[7] = test system: Porphyromonas gingivalis; assay: Cell viability assay for P. gingivalis; format: cell-based; conditions: 48 hours, anaerobic, Brucella Broth
Protocol: Cell viability assays for H. influenza and P. gingivalis: Haemophilus influenzae Rd [KW20] was obtained from ATCC (51907). Standard growth and culturing techniques were followed as described previously^92. Cultures were grown in Brain Heart Infusion broth (BHI) supplemented with 7.5 μM of hemin and 2 μg/ml NAD with or without the addition of peptide for 24 hours. The number of viable cells for every reaction mixture was then determined by serially diluting and spotting 10-μl aliquots in triplicates on BHI agar plates supplemented with 15 μM hemin and 3 μM NAD. Porphyromonas gingivalis 2561 was obtained from ATCC (33277). Pre-reduced, anaerobically sterilized Brucella Broth and BRU—Brucella Blood Agar—were purchased from Anaerobe systems (CA, USA). They were opened just before use. Static cultures and plates were incubated at 37° C. in an incubation chamber from BD GasPak™ EZ Container Systems. Anaerobic conditions were maintained by using BD BBL CO2 gas generators and BD BB GasPak™ CO2 indicators. Cultures were grown anaerobically in Brucella Broth with or without addition of peptides for 48 hours and viable cells for every reaction mixture were then determined by serially diluting and spotting 10-μ1 aliquots in triplicates on Brucella Blood Agar.

[8] = test system: Sinorhizobium meliloti; assay: S. meliloti cell death in 24 hours (plating); format: cell-based

For RNGCIVDPRCPYQQCRRPLYCRRR [NCR247], which Kd ([1]; biotinylated heme as ligand, peptide as analyte) is on record?
Its Kd is about 1 nM.

What about the “heme binding affinity, in words” value ([1]; compared with NCR247 (L-enantiomer)) of the same sequence?
The value was “binds heme with nanomolar affinity”.

And the “sequestration of heme from Cytochrome c” value [2]?
Its value is “cannot sequester cytochrome heme; also recorded: inability of NCR247 to sequester heme from Cytochrome c”.

What about the “expression of iron uptake genes” value [3] of the same sequence?
Its value is “increase in transcript levels of iron uptake genes”.

And the “expression of iron uptake genes” value ([3]; listed as L-NCR247)?
The value was “increase in expression of hmuP”.

What about the “expression of rirA” value ([3]; 2 μM) of the same sequence?
Its value is “rirA transcription was reduced”.

What about the water solubility [4] of the same sequence?
The water solubility was “highly water soluble”.

What about the “expression of ctrA” value [5] of the same sequence?
The value was “lowers the expression of CtrA; also recorded: decrease in expression of ctrA”.

What about the “removal of heme from Aβ-heme complex” value [6] of the same sequence?
Its value is “can strip the heme out of the Aβ-heme complex”.

And the “growth / viable cell number of P. gingivalis” value [7]?
The value was “can prevent the growth”.

What about the “growth / viable cell number of P. gingivalis” value ([7]; listed as L-NCR247) of the same sequence?
Its value is “Reduction of viable cell number”.

What about the “Cell death in 24 hours” value ([8]; 6 uM peptide) of the same sequence?
The value was 10000 fold decrease in fold decrease in cell number.

What about the “reduction in number of S. meliloti cells (bactericidal effect)” value ([8]; incubated 24 hours, plated in non-selective medium) of the same sequence?
Its value is “causes a reduction in the number of S. meliloti cells”.
